Experiment [1] addresses T1, HPK1 (Homo sapiens, UniProt Q92918).
T1 construct: purchased SignalChem M23-11G
T1 sequence (Q92918 1-346 limits assumed): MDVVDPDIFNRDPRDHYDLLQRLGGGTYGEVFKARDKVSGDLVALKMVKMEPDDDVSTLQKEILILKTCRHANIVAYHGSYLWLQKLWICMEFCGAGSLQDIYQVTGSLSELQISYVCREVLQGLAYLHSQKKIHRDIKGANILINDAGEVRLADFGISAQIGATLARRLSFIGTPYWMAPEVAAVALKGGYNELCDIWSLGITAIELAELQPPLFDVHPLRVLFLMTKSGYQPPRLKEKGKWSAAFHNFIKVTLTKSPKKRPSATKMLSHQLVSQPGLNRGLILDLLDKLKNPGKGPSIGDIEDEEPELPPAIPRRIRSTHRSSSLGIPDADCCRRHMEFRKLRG
Nature of the experiment: HPK1 Inhibition Assay (kinase reaction, Caliper capillary electrophoresis). Type of experiment: biochemical. As to conditions: for IRAK4/HPK1 Ratio: ratio of the IRAK4 IC50 value to the HPK1 IC50 value. The method, then:
The reactions were incubated out for three hours and quenched with 1 mM EDTA solution. The reaction incubation time and enzyme concentration were optimized to obtain a maximum peptide substrate conversion of 20-30%. The reaction mixtures were analyzed by capillary electrophoresis on a Caliper LabChip EZ Reader to resolve phosphorylated and unphosphorylated peptide species and determine peptide substrate conversion. […] The compounds were dissolved in DMSO and evaluated at 11 concentrations to determine the IC50 values.

The target of experiment [2] is T2, IRAK4 (Homo sapiens, UniProt Q9NWZ3).
T2 construct: 1 nM IRAK4 (160-460); purchased SignalChem M24016
T2 sequence (Q9NWZ3 160-460): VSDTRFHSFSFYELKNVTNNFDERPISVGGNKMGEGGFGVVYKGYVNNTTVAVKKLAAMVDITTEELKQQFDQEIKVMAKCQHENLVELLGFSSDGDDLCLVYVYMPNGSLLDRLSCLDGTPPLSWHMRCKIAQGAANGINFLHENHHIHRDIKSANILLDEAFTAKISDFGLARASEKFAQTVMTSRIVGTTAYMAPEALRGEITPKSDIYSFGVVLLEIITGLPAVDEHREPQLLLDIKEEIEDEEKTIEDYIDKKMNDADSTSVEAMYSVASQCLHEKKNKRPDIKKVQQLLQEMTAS
Nature of the experiment: IRAK4 Inhibition Assay (kinase reaction, Caliper capillary electrophoresis). As to conditions: 500 μM ATP, 11 concentrations. It counts as biochemical. The method, then:
The reactions were incubated out for three hours and quenched with 1 mM EDTA solution. The reaction incubation time and enzyme concentration were optimized to obtain a maximum peptide substrate conversion of 20-30%. The reaction mixtures were analyzed by capillary electrophoresis on a Caliper LabChip EZ Reader to resolve phosphorylated and unphosphorylated peptide species and determine peptide substrate conversion. […] The compounds were dissolved in DMSO and evaluated at 11 concentrations to determine IC50 values.

Where [3] appears, read: 0.625 nM HPK1, 22 μM ATP, 11 concentrations, read-out: HPK1 IC50.

Each structure is given as a SMILES string. Like-named read-outs stand apart in the source and are kept apart here. Where only a bound is given, the exact number is not on record here.

As a reminder, the IC50 is the concentration that inhibits the measured activity by half. Regarding `CC1(CNC(=O)c2cnc(Nc3ccc4c(c3)C(C)(C)OC4=O)nc2N[C@H](CO)c2ccccc2)COC1` [Example 23, 2-[(3,3-dimethyl-1-oxo-1,3-dihydro-2-benzofuran-5-yl)amino]-4-{[(1S)-2-hydroxy-1-phenylethyl]amino}-N-[(3-methyloxetan-3-yl)methyl]pyrimidine-5-carboxamide], the figures for the IC50 in experiment [1] (setting [3]) and in experiment [2] were under 50 nM and 250 to 1000 nM, respectively. Also, the “IRAK4/HPK1 Ratio” value in experiment [1] is given as “B (B=10 to 50)”.

With `CC1(C)OC(=O)c2ccc(Nc3ncc(C(=O)NC[C@@]4(O)CN5CCC4CC5)c(N[C@H](CO)c4ccccc4)n3)cc21` [Example 24, 2-[(3,3-dimethyl-1-oxo-1,3-dihydro-2-benzofuran-5-yl)amino]-N-{[(3R)-3-hydroxy-1-azabicyclo[2.2.2]octan-3-yl]methyl}-4-{[(1S)-2-hydroxy-1-phenylethyl]amino}pyrimidine-5-carboxamide], in experiment [1], the IC50 is under 50 nM and the “IRAK4/HPK1 Ratio” value is listed as “B (B=10 to 50)”. In addition, the IC50 in experiment [2] was 250 to 1000 nM.

As to `CC1(C)OC(=O)c2ccc(Nc3ncc(C(=O)NCC4CN5CCC4CC5)c(N[C@H](CO)c4ccccc4)n3)cc21` (stereo partly drawn) [Example 25, N-({1-azabicyclo[2.2.2]octan-3-yl}methyl)-2-[(3,3-dimethyl-1-oxo-1,3-dihydro-2-benzofuran-5-yl)amino]-4-{[(1S)-2-hydroxy-1-phenylethyl]amino}pyrimidine-5-carboxamide], in experiment [1], the IC50 is under 50 nM and the “IRAK4/HPK1 Ratio” value is listed as “B (B=10 to 50)”. Also, the IC50 in experiment [2] is 250 to 1000 nM.

Consider `CC1(C)OC(=O)c2ccc(Nc3ncc(C(=O)NCC4(CN5CCOCC5)CC4)c(N[C@H](CO)c4ccccc4)n3)cc21` [Example 26, 2-[(3,3-dimethyl-1-oxo-1,3-dihydro-2-benzofuran-5-yl)amino]-4-{[(1S)-2-hydroxy-1-phenylethyl]amino}-N-({1-[(morpholin-4-yl)methyl]cyclopropyl}methyl)pyrimidine-5-carboxamide], for which the half-maximal inhibitory concentration (IC50) in experiment [1] (setting [3]) was under 50 nM; in experiment [2] it was 250 to 1000 nM. For the same molecule, in experiment [1], the “IRAK4/HPK1 Ratio” value is “C (C=>50)”.

For `CC1(C)OC(=O)c2ccc(Nc3ncc(C4=NCC5(CCOCC5)O4)c(N[C@H](CO)c4ccccc4)n3)cc21` [Example 27, 5-[(5-{1,8-dioxa-3-azaspiro[4.5]dec-2-en-2-yl}-4-{[(1S)-2-hydroxy-1-phenylethyl]amino}pyrimidin-2-yl)amino]-3,3-dimethyl-1,3-dihydro-2-benzofuran-1-one], the IC50 in experiment [1] (setting [3]) is under 50 nM; in experiment [2], 50 to 250 nM. In addition, the “IRAK4/HPK1 Ratio” value in experiment [1] is listed as “B (B=10 to 50)”.

For the molecule `CC1(C)OC(=O)c2ccc(Nc3ncc(-c4nc(N5CCOCC5)no4)c(N[C@H](CO)c4ccccc4)n3)cc21` [Example 31, 5-[(4-{[(1S)-2-hydroxy-1-phenylethyl]amino}-5-[3-(morpholin-4-yl)-1,2,4-oxadiazol-5-yl]pyrimidin-2-yl)amino]-3,3-dimethyl-1,3-dihydro-2-benzofuran-1-one], the IC50 in experiment [1] (setting [3]) is under 50 nM; in experiment [2] it was 50 to 250 nM. Also, the “IRAK4/HPK1 Ratio” value in experiment [1] is “C (C=>50)”.

Take `CC1(C)OC(=O)c2ccc(Nc3ncc(-c4nc(CN5CCOCC5)no4)c(N[C@H](CO)c4ccccc4)n3)cc21` [Example 32, 5-[(4-{[(1S)-2-hydroxy-1-phenylethyl]amino}-5-{3-[(morpholin-4-yl)methyl]-1,2,4-oxadiazol-5-yl}pyrimidin-2-yl)amino]-3,3-dimethyl-1,3-dihydro-2-benzofuran-1-one]: the IC50 in experiment [1] (setting [3]) is under 50 nM; in experiment [2], 250 to 1000 nM. Moreover, the “IRAK4/HPK1 Ratio” value in experiment [1] is given as “C (C=>50)”.

As for `CC1(C)OC(=O)c2ccc(Nc3ncc(-c4nc(C5CCOCC5)no4)c(N[C@H](CO)c4ccccc4)n3)cc21` [Example 33, 5-[(4-{[(1S)-2-hydroxy-1-phenylethyl]amino}-5-[3-(oxan-4-yl)-1,2,4-oxadiazol-5-yl]pyrimidin-2-yl)amino]-3,3-dimethyl-1,3-dihydro-2-benzofuran-1-one], the values for the half-maximal inhibitory concentration (IC50) in experiment [1] (setting [3]) and in experiment [2] were under 50 nM and 50 to 250 nM, respectively. Besides, in experiment [1], the “IRAK4/HPK1 Ratio” value is reported as “C (C=>50)”.

As to `CCCc1noc(-c2cnc(Nc3ccc4c(c3)C(C)(C)OC4=O)nc2N[C@H](CO)c2ccccc2)n1` [Example 35, 5-[(4-{[(1S)-2-hydroxy-1-phenylethyl]amino}-5-(3-propyl-1,2,4-oxadiazol-5-yl)pyrimidin-2-yl)amino]-3,3-dimethyl-1,_3-dihydro-2-benzofuran-1-one], the half-maximal inhibitory concentration (IC50) in experiment [1] (setting [3]) is under 50 nM; in experiment [2], 250 to 1000 nM. Further, the “IRAK4/HPK1 Ratio” value in experiment [1] is given as “C (C=>50)”.

As to `CCCCc1noc(-c2cnc(Nc3ccc4c(c3)C(C)(C)OC4=O)nc2N[C@H](CO)c2ccccc2)n1` [Example 36, 5-{[5-(3-butyl-1,2,4-oxadiazol-5-yl)-4-{[(1S)-2-hydroxy-1-phenylethyl]amino}pyrimidin-2-yl]amino}-3,3-dimethyl-1,3-dihydro-2-benzofuran-1-one], the IC50 was under 50 nM in experiment [1] (setting [3]) and 250 to 1000 nM in experiment [2]. The “IRAK4/HPK1 Ratio” value in experiment [1] was “C (C=>50)”.

Take `CC(C)(CCCCO)c1noc(-c2cnc(Nc3ccc4c(c3)C(C)(C)OC4=O)nc2N[C@H](CO)c2ccccc2)n1` [Example 37, 5-[(4-{[(1S)-2-hydroxy-1-phenylethyl]amino}-5-[3-(6-hydroxy-2-methylhexan-2-yl)-1,2,4-oxadiazol-5-yl]pyrimidin-2-yl)amino]-3,3-dimethyl-1,3-dihydro-2-benzofuran-1-one]: the IC50 in experiment [1] (setting [3]) was under 50 nM; in experiment [2], 250 to 1000 nM. In addition, the “IRAK4/HPK1 Ratio” value in experiment [1] was “C (C=>50)”.

In the case of `CC1(C)OC(=O)c2ccc(Nc3ncc(-c4nc(C5(CO)CC5)no4)c(N[C@H](CO)c4ccccc4)n3)cc21` [Example 38, 5-[(4-{[(1S)-2-hydroxy-1-phenylethyl]amino}-5-{3-[1-(hydroxymethyl)cyclopropyl]-1,2,4-oxadiazol-5-yl}pyrimidin-2-yl)amino]-3,3-dimethyl-1,3-dihydro-2-benzofuran-1-one], the IC50 in experiment [1] (setting [3]) is under 50 nM; in experiment [2] it was 50 to 250 nM. Further, the “IRAK4/HPK1 Ratio” value in experiment [1] is recorded as “C (C=>50)”.

As for `CC1(C)OC(=O)c2ccc(Nc3ncc(-c4nc(C5CC(F)(F)C5)no4)c(N[C@H](CO)c4ccccc4)n3)cc21` [Example 40, 5-({5-[3-(3,3-difluorocyclobutyl)-1,2,4-oxadiazol-5-yl]-4-{[(1S)-2-hydroxy-1-phenylethyl]amino}pyrimidin-2-yl}amino)-3,3-dimethyl-1,3-dihydro-2-benzofuran-1-one], the results for the IC50 in experiment [1] (setting [3]) and in experiment [2] were under 50 nM and 250 to 1000 nM, respectively. The “IRAK4/HPK1 Ratio” value in experiment [1] is “C (C=>50)”.

Regarding `CC(C)(CO)c1noc(-c2cnc(Nc3ccc4c(c3)C(C)(C)OC4=O)nc2N[C@H](CO)c2ccccc2)n1` [Example 41, (S)-5-((4-((2-hydroxy-1-phenylethyl)amino)-5-(3-(1-hydroxy-2-methylpropan-2-yl)-1,2,4-oxadiazol-5-yl)pyrimidin-2-yl)amino)-3,3-dimethylisobenzofuran-1(3H)-one], the IC50 in experiment [1] (setting [3]) is under 50 nM; in experiment [2], 50 to 250 nM. Further, the “IRAK4/HPK1 Ratio” value in experiment [1] was “C (C=>50)”.

With `CC1(C)OC(=O)c2ccc(Nc3ncc(-c4nc(-c5ccccn5)no4)c(N[C@H](CO)c4ccccc4)n3)cc21` [Example 42, 5-[(4-{[(1S)-2-hydroxy-1-phenylethyl]amino}-5-[3-(pyridin-2-yl)-1,2,4-oxadiazol-5-yl]pyrimidin-2-yl)amino]-3,3-dimethyl-1,3-dihydro-2-benzofuran-1-one], the half-inhibitory concentration (IC50) in experiment [1] (setting [3]) is under 50 nM; in experiment [2] it was 250 to 1000 nM. Further, the “IRAK4/HPK1 Ratio” value in experiment [1] is recorded as “C (C=>50)”.

With `CC1(C)OC(=O)c2ccc(Nc3ncc(-c4nc(-c5cccnc5)no4)c(N[C@H](CO)c4ccccc4)n3)cc21` [Example 43, 5-[(4-{[(1S)-2-hydroxy-1-phenylethyl]amino}-5-[3-(pyridin-3-yl)-1,2,4-oxadiazol-5-yl]pyrimidin-2-yl)amino]-3,3-dimethyl-1,3-dihydro-2-benzofuran-1-one], the IC50 in experiment [1] (setting [3]) is under 50 nM; in experiment [2] it was 250 to 1000 nM. Moreover, the “IRAK4/HPK1 Ratio” value in experiment [1] is “C (C=>50)”.

For the molecule `CC1(C)OC(=O)c2ccc(Nc3ncc(-c4nc(-c5cccc(F)c5)no4)c(N[C@H](CO)c4ccccc4)n3)cc21` [Example 45, 5-({5-[3-(3-fluorophenyl)-1,2,4-oxadiazol-5-yl]-4-{[(1S)-2-hydroxy-1-phenylethyl]amino}pyrimidin-2-yl}amino)-3,3-dimethyl-1,3-dihydro-2-benzofuran-1-one], the results for the half-inhibitory concentration (IC50) in experiment [1] (setting [3]) and in experiment [2] were 50 to 250 nM and 250 to 1000 nM, respectively. In addition, the “IRAK4/HPK1 Ratio” value in experiment [1] is “B (B=10 to 50)”.

The record behind these values is patent publication US11166959B2, “Isofuranone compounds useful as HPK1 inhibitors” (BRISTOL-MYERS SQUIBB COMPANY, priority 2017, dated 2021).
